Data on 34 compounds can be found in patent US20240246979A1, “cGAS INHIBITORS” (Eli Lilly and Company, priority 2022, published 2024).

Test [1] addresses T1, cGAS (Homo sapiens, UniProt Q8N884). As to the kind of experiment: In vitro inhibition assay of cGAS activity (cGAMP production, RapidFire mass spectrometry). Format: biochemical. More on the design: Insert cDNA encoding full-length of human cGAS; His6; made in house; host or cells: E. coli BL21(DE3). To be noted: 10 nM recombinant human cGAS, 60 nM 75-bp dsDNA, 50 μM ATP, 50 μM GTP, 3 hrs. A digest of the protocol: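 His6-tagged full-length human cGAS (10 nM, E. coli-expressed) was incubated for 3 hrs at ambient temperature with 60 nM 75-bp dsDNA, 50 μM ATP and 50 μM GTP in Tris pH 7.5/MgCl2 buffer with compound dilutions. cGAMP was quantified by RapidFire mass spectrometry against an internal standard, and IC50 was obtained by 4-parameter logistic fit.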

Test [2] concerns the target T1, cGAS. In words: Cellular assay to measure cGAS activity (IFNb AlphaLISA in THP1 cells stimulated by RDG-Adenovirus-GFP). Format: cell-based. More on the design: host or cells: THP1 cells differentiated with PMA and stimulated with RDG-Adenovirus-GFP. To be noted: PMA-differentiated THP1 cells, RDG-Adenovirus-GFP at 1000 MOI; inhibition of IFNb production as marker for cGAS activity. In short, it runs like this: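 PMA-differentiated THP1 cells were infected with RDG-Adenovirus-GFP at 1000 MOI for 4 h, then exposed overnight to test compounds. IFNb in the supernatant was quantified by AlphaLISA as a cGAS activity marker, and IC50 was fitted with a 4-parameter logistic equation.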
For orientation: Alpha assays give light when donor and acceptor beads are brought close together.

Broadly, the IC50 is the midpoint of a concentration-inhibition curve.

T1 sequence (Q8N884 whole entry): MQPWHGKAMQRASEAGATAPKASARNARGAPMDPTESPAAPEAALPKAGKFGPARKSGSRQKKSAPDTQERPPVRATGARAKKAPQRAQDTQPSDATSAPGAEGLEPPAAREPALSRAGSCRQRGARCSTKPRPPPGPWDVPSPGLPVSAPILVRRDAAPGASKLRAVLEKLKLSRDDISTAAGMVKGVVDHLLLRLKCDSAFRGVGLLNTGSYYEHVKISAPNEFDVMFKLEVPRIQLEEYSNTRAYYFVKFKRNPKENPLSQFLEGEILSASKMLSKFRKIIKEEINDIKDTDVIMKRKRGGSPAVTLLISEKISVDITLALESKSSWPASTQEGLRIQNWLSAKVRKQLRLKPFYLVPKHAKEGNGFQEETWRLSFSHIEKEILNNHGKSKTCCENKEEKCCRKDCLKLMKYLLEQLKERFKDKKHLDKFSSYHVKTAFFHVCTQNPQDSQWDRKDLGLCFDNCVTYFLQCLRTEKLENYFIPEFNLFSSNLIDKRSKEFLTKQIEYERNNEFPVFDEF

In the case of `Cn1c2c(c3c(CC#N)cc(Cl)c(Cl)c31)CC(=O)NC[C@H]2CCO` (single isomer, unassigned) [Example 123], the results for the concentration for half-maximal inhibition (IC50) in test [1] and in test [2] were 14.1 nM and 181 nM, respectively.

On to `Cn1c2c(c3c(OCC#N)cc(Cl)c(Cl)c31)CC(=O)NC[C@H]2CCO` (single isomer, unassigned) [Example 125], for which the half-inhibitory concentration (IC50) in test [1] is 18 nM; in test [2], 272 nM.

`Cn1c2c(c3c(OCC#N)cc(Cl)c(Cl)c31)CC(=O)NC[C@H]2CCO` (single isomer, unassigned) [Example 126]: the 50% inhibitory concentration (IC50) in test [1] was 997 nM; in test [2], 501 nM.

As for `Cn1c2c(c3c(CC#N)cc(Cl)c(Cl)c31)CC(=O)NC[C@H]2CC(C)(C)O` (single isomer, unassigned) [Example 129], the values for the 50% inhibitory concentration (IC50) in test [1] and in test [2] were 1550 nM and 1320 nM, respectively.

Consider `Cn1c2c(c3c(CC#N)cc(Cl)c(Cl)c31)CC(=O)NC[C@H]2CC(C)(C)O` (single isomer, unassigned) [Example 130], for which the IC50 in test [1] worked out at 12.3 nM; in test [2], 205 nM.

Regarding `C[C@H]1C(=O)NCC(C)(C)c2[nH]c3c(Cl)c(Cl)cc(NC(=O)CO)c3c21` (single isomer, unassigned) [Example 132], the figures for the IC50 in test [1] and in test [2] were not below 39800 nM and more than 10000 nM, respectively.

Turning to `C[C@H]1C(=O)NCC(C)(C)c2[nH]c3c(Cl)c(Cl)cc(NC(=O)CO)c3c21` (single isomer, unassigned) [Example 133], the half-maximal inhibitory concentration (IC50) is 20 nM in test [1] and 820 nM in test [2].

As for `C[C@H]1C(=O)NCC(C)(C)c2c1c1c(NC(=O)CO)cc(Cl)c(Cl)c1n2C` (single isomer, unassigned) [Example 134, (R)—N-(7,8-Dichloro-1,5,5,6-tetramethyl-2-oxo-1,2,3,4,5,6-hexahydroazepino[4,5-b]indol-10-yl)-2-hydroxyacetamide or (S)—N-(7,8-Dichloro-1,5,5,6-tetramethyl-2-oxo-1,2,3,4,5,6-hexahydroazepino[4,5-b]indol-10-yl)-2-hydroxyacetamide], the results for the IC50 in test [1] and in test [2] were 17.5 nM and 787 nM, respectively.

Consider `C[C@H]1C(=O)NCC(C)(C)c2c1c1c(NC(=O)CO)cc(Cl)c(Cl)c1n2C` (single isomer, unassigned) [Example 135, (R)—N-(7,8-Dichloro-1,5,5,6-tetramethyl-2-oxo-1,2,3,4,5,6-hexahydroazepino[4,5-b]indol-10-yl)-2-hydroxyacetamide or (S)—N-(7,8-Dichloro-1,5,5,6-tetramethyl-2-oxo-1,2,3,4,5,6-hexahydroazepino[4,5-b]indol-10-yl)-2-hydroxyacetamide], for which the half-inhibitory concentration (IC50) in test [1] is 20200 nM; in test [2], not below 10000 nM.

For the compound `Cn1ncc(-c2cc(Cl)c(Cl)c3[nH]c4c(c23)CC(=O)NC[C@H]4CC(C)(F)F)n1` (single isomer, unassigned) [Example 136], the IC50 in test [1] worked out at 16 nM; in test [2] it was 1570 nM.

For `Cn1ncc(-c2cc(Cl)c(Cl)c3[nH]c4c(c23)CC(=O)NC[C@H]4CC(C)(F)F)n1` (single isomer, unassigned) [Example 137], the results for the IC50 in test [1] and in test [2] were 683 nM and more than 10000 nM, respectively.

As for `CC(F)(F)C[C@@H]1CNC(=O)Cc2c1[nH]c1c(Cl)c(Cl)cc(CC#N)c21` (single isomer, unassigned) [Example 138], the half-maximal inhibitory concentration (IC50) in test [1] is 8 nM; in test [2] it was 431 nM.

In the case of `CC(F)(F)C[C@@H]1CNC(=O)Cc2c1[nH]c1c(Cl)c(Cl)cc(CC#N)c21` (single isomer, unassigned) [Example 139], the IC50 in test [1] was 824 nM; in test [2], 4610 nM.

Consider `C[C@H](O)C(=O)Nc1cc(Cl)c(Cl)c2c1c1c(n2C(F)F)CCNC(=O)[C@H]1C` (single isomer, unassigned) [Example 142], for which the half-maximal inhibitory concentration (IC50) in test [1] is 29.6 nM; in test [2], 293 nM.

`C[C@H](O)C(=O)Nc1cc(Cl)c(Cl)c2c1c1c(n2C(F)F)CCNC(=O)[C@H]1C` (single isomer, unassigned) [Example 143]: the results for the 50% inhibitory concentration (IC50) in test [1] and in test [2] were 1510 nM and more than 10000 nM, respectively.

Consider `C[C@H]1C(=O)NCCc2c1c1c(NC(=O)CO)cc(Cl)c(Cl)c1n2C(F)F` (single isomer, unassigned) [Example 145, (R)—N-(7,8-Dichloro-6-(difluoromethyl)-1-methyl-2-oxo-1,2,3,4,5,6-hexahydroazepino[4,5-b]indol-10-yl)-2-hydroxyacetamide or (S)—N-(7,8-Dichloro-6-(difluoromethyl)-1-methyl-2-oxo-1,2,3,4,5,6-hexahydroazepino[4,5-b]indol-10-yl)-2-hydroxyacetamide], for which the IC50 in test [1] amounted to 12.3 nM; in test [2] it was 287 nM.

In the case of `C[C@@H]1CNC(=O)Cc2c1[nH]c1c(Cl)c(Cl)cc(-c3cnn(C)n3)c21` (single isomer, unassigned) [Example 146], the IC50 in test [1] worked out at 27.2 nM; in test [2] it was 300 nM.

As for `C[C@@H]1CNC(=O)Cc2c1[nH]c1c(Cl)c(Cl)cc(-c3cnn(C)n3)c21` (single isomer, unassigned) [Example 147], the IC50 was determined as 237 nM in test [1] and 5170 nM in test [2].

As to `C[C@@H]1CNC(=O)Cc2c1[nH]c1c(Cl)c(Cl)cc(OCC#N)c21` (single isomer, unassigned) [Example 148], the IC50 was determined as 41.4 nM in test [1] and 1390 nM in test [2].

Turning to `C[C@@H]1CNC(=O)Cc2c1[nH]c1c(Cl)c(Cl)cc(OCC#N)c21` (single isomer, unassigned) [Example 149], the values for the IC50 in test [1] and in test [2] were 1560 nM and 3080 nM, respectively.

With `C[C@@H]1CNC(=O)[C@@H](C)c2c1[nH]c1c(Cl)c(Cl)cc(CC#N)c21` (single isomer, unassigned) [Example 150], the half-inhibitory concentration (IC50) in test [1] was 25.9 nM; in test [2], 2120 nM.

Regarding `C[C@@H]1C(=O)NC[C@H](C)c2[nH]c3c(Cl)c(Cl)cc(CC#N)c3c21` (single isomer, unassigned) [Example 151], the results for the IC50 in test [1] and in test [2] were 19.7 nM and 1770 nM, respectively.

In the case of `C[C@@H]1C(=O)NC[C@H](C)c2[nH]c3c(Cl)c(Cl)cc(CC#N)c3c21` (single isomer, unassigned) [Example 152], the values for the IC50 in test [1] and in test [2] were 948 nM and 5310 nM, respectively.

As for `C[C@@H]1CNC(=O)[C@@H](C)c2c1[nH]c1c(Cl)c(Cl)cc(CC#N)c21` (single isomer, unassigned) [Example 153], the half-maximal inhibitory concentration (IC50) in test [1] is 2420 nM; in test [2], more than 10000 nM.

Turning to `C[C@@H]1CNC(=O)[C@@H](C)c2c1[nH]c1c(Cl)c(Cl)cc(NCCO)c21` (single isomer, unassigned) [Example 154], the values for the IC50 in test [1] and in test [2] were 12.4 nM and 394 nM, respectively.

Turning to `C[C@@H]1CNC(=O)[C@H](C)c2c1[nH]c1c(Cl)c(Cl)cc(NCCO)c21` (single isomer, unassigned) [Example 155], the IC50 in test [1] came to 17.7 nM; in test [2], 655 nM.

Take `C[C@@H]1CNC(=O)[C@H](C)c2c1[nH]c1c(Cl)c(Cl)cc(NCCO)c21` (single isomer, unassigned) [Example 156]: the results for the IC50 in test [1] and in test [2] were 1810 nM and more than 10000 nM, respectively.

For the compound `C[C@@H]1CNC(=O)[C@@H](C)c2c1[nH]c1c(Cl)c(Cl)cc(NCCO)c21` (single isomer, unassigned) [Example 157], the IC50 in test [1] was 6680 nM; in test [2] it was more than 10000 nM.

In the case of `C[C@@H]1CNC(=O)[C@@H](C)c2c1[nH]c1c(Cl)c(Cl)cc(NC(=O)CO)c21` (single isomer, unassigned) [Example 160, N-((1S,5R)-7,8-Dichloro-1,5-dimethyl-2-oxo-1,2,3,4,5,6-hexahydroazepino[4,5-b]indol-10-yl)-2-hydroxyacetamide or N-((1R,5S)-7,8-Dichloro-1,5-dimethyl-2-oxo-1,2,3,4,5,6-hexahydroazepino[4,5-b]indol-10-yl)-2-hydroxyacetamide], the figures for the concentration for half-maximal inhibition (IC50) in test [1] and in test [2] were 13 nM and 256 nM, respectively.

With `C[C@@H]1CNC(=O)[C@@H](C)c2c1[nH]c1c(Cl)c(Cl)cc(NC(=O)CO)c21` (single isomer, unassigned) [Example 161, N-((1S,5R)-7,8-Dichloro-1,5-dimethyl-2-oxo-1,2,3,4,5,6-hexahydroazepino[4,5-b]indol-10-yl)-2-hydroxyacetamide or N-((1R,5S)-7,8-Dichloro-1,5-dimethyl-2-oxo-1,2,3,4,5,6-hexahydroazepino[4,5-b]indol-10-yl)-2-hydroxyacetamide], the 50% inhibitory concentration (IC50) was 3730 nM in test [1] and more than 10000 nM in test [2].

As for `COCC[C@@H]1CNC(=O)Cc2c1[nH]c1c(Cl)c(Cl)cc(-c3cnn(C)n3)c21` (single isomer, unassigned) [Example 167], the IC50 is 12.8 nM in test [1] and 624 nM in test [2].

Regarding `COCC[C@H]1CNC(=O)Cc2c1[nH]c1c(Cl)c(Cl)cc(-c3cnn(C)n3)c21` (single isomer, unassigned) [Example 168], the concentration for half-maximal inhibition (IC50) in test [1] amounted to 109 nM; in test [2], 4600 nM.

On to `COCC[C@H]1CNC(=O)[C@H](C)c2c1[nH]c1c(Cl)c(Cl)cc(NCCO)c21` (single isomer, unassigned) [Example 171], for which the IC50 in test [1] is 7.84 nM; in test [2], 483 nM.

`COCC[C@H]1CNC(=O)[C@H](C)c2c1[nH]c1c(Cl)c(Cl)cc(NCCO)c21` (single isomer, unassigned) [Example 172]: the values for the IC50 in test [1] and in test [2] were 1810 nM and more than 10000 nM, respectively.
